“And” between values parts separate entries of the source, which are not always exact repeats. Equal entries are not always repeated.
Assays:
Aβ aggregates = details: reported probe; ref (8); cited from earlier work
Aβ1–42 aggregates [1] = molecular target: T1, Aβ1–42 aggregates (Homo sapiens, UniProt P05067); assay: Fluorescence enhancement assay with Aβ aggregates; format: binding; details: for Em, with Aβ / Em shift, with Aβ: 10% ethanol/PBS; for Em shift, with Aβ: + red shift, − blue shift; for Fluorescence enhancement (Fold = FL intensity probe+Aβ / probe): probe 1 μM in 10% EtOH/PBS, Aβ aggregates 33 µg mL−1
T1 construct: purchased Shanghai Macklin Biochemical Technology Co., Ltd
Source text: Thioflavin‐T (ThT) is the gold standard probe, commonly used as an in vitro fluorescence stain to determine the existence of Aβ aggregates. The ThT probe has a typical D–A structure, and its HOMO and LUMO electron clouds are redistributed from the donor (HOMO) to the acceptor (LUMO), which is typical for ICT probes.^[ [46] ^] In addition, the single bond between the benzene ring in the ThT probe and the benzothiazole salt, and the N,N‐dimethylamino group attached to the benzene ring can rotate freely, resulting in ThT becoming a molecular rotor. After ThT binds to Aβ, the rotation of the molecular rotor is restricted, and most of the electrons in the excited state return to the ground state by radiative transition, resulting in a substantial increase in fluorescence. […] The fluorescence response of TPyrBDP, TPipBDP, and THAIBDP with Aβ1–42 aggregates and BSA was evaluated in PBS (10% ethanol) solution. The formation of Aβ1–42 aggregates was characterized by TEM. The morphology of Aβ1–42 aggregates was filamentous (Figure S25b, Supporting Information), while the morphology of Aβ1–42 oligomers was a point‐like structure with a minimum diameter 44 nm (Figure S25a, Supporting Information). The images confirmed that Aβ1–42 aggregates were prepared successfully. As shown in Figure 2c‐f and Table S1, Supporting Information, a 42.5‐fold enhancement of fluorescence was observed when TPyrBDP interacted with the Aβ1–42 aggregates. […] The results confirmed the calculation results in Figure 1. […] In Figure 1b, the three probes are inserted into the hydrophobic pocket of Aβ1–42 aggregates when they interact with Aβ1–42 aggregates, resulting in changes of λ em. The fluorescence response of BSA with probes may cause non‐specific fluorescence enhancement, thus generating false signals. Therefore, we evaluated the interaction between the three probes and BSA. […] The selectivity of TPyrBDP, TPipBDP, and THAIBDP to different ions and amino acids was also evaluated. […] The ions and amino acids had no influence on the fluorescence enhancement of the probes. To quantify the binding affinity (K d) of the probes to Aβ1–42 aggregates, fluorescence‐based saturation binding assays were conducted using Aβ1–42 aggregates. The lower the K d values, the better the affinities.
To a solution of HFIP (600 μL) was added hum an Aβ42 (1 mg). After that, the solution was ultrasonicall y t reated for 2 min to destroy the oligomer probabl y formed, followed b y placing the mixture into an ice bath for 2 h. The solution was dispensed 20 μL per cent rifuge tube, dried by nitro gen, and stored at −80 °C.
To a centrifuge tube (containing 33 μg of Aβ42) was added 540 μL of PBS and 1% hydrox yl amine solution (60 μL); the solution was s haken on a shaker (300 rpm) at 37 °C for 72-96 h to form the Aβ42 aggregates. The Aβ42 aggregates were characterized by transmission electron microscop y (TEM).
Fluorescence Enhancement Assay
To a solution of probes were added pretreated Aβ42 aggregates (33 μg) or bovine serum albumin (BSA). The mix ture (the final concentration of probes was 1μM in 10% EtOH/PBS) was immediatel y transferred to a fluorescence spectrophot ometer (U-3900H, HITACHI, J apan) to record their spectrum (Ex slit = 10 nm, Em slit = 20 nm).
The probes alone (1μM in 10% EtOH/PBS), PBS, and BSA were also tested under the same conditions. The fluorescence enhancem ent was calculated usin g the followin g formula: fold = the fluorescence intensit y of the probe with Aβ42 or BSA/the fluorescence intensit y of probe alone. […]
(1 picture or pasted object on this page, not shown here)

Cytotoxicity MTT assay = format: cell-based; details: rat, PC12 cells, read-out: Cell viability
Procedure: The cells used for the cyt otox icit y t est were PC12, purchased from the Chinese National Infrastructure of Cell Line Resource. The experiment was divid ed into two parts, cell culture, and c yt otox icit y test. The PC12 cells were first cultured in cell culture fluid (high-glucose DMEM/heat-inactivated FBS/ heat-inactivated HS /penicillin and streptomycin = 100: 5: 5: 1, v/v) under 5% CO2 at 37 °C. After a period of incubation, PC12 were transferred into a sterile 96-well plate (1 × 10^4 cells per well) and cultured
for 24 h under 5% CO2 at 37 °C. After that, the cell culture fluid was removed, and gradient concentrations of probes (TP yrBDP, TPipBDP, THAIBDP), Aβ in the cell culture fluid (0, 2, 5, 10, 12, and 15 μM), or probes+ Aβ in th e cell culture fluid (5 μM probe + 10 μM Aβ) were added into the 96-well plate and incubat ed for another 24 h.
After that, the gradient concentration of probes or Aβ was removed and MTT (5× MTT was diluted into 1× MTT using dilution buffer, 50 μL per well) was added; t he mix ture was incubated at 37 °C for 4 h. The supernatant was removed, and form azan (150 μL per well) was added; the mix ture was placed on a shaker to be mix ed well. The cell viabilit y was determined by a microplate reader at 490 nm.

Hemolysis rate assay = format: cell-based; details: human, human red blood cells separated from whole blood, probe up to 100 µM, room temperature
Procedure: A cytotoxicity assay is one of the methods to evaluate the biocompatibility of probe molecules. Probes are generally considered to have low cytotoxicity when the cell viability is above 80%. Therefore, the cytotoxicity of TPyrBDP, TPipBDP, and THAIBDP was evaluated using PC12 cells using a standard MTT assay method. […] The hemolysis rate of probes is one of the common methods to evaluate the effect of probes on the blood of live animals. Therefore, the hemolysis rate of probes TPyrBDP, TPipBDP, and THAIBDP with blood samples was also evaluated. […] Therefore, the probes were suitable for subsequent cell experiments and animal experiments.
(§1) In Vitro Brain Slice Fluorescence Staining
The paraffin-embedded blank sections (5 μm) were immersed in x ylene for 5 min for deparaffinization and then washed with ethanol for 2 min and water for 5 min. The brain slices were incubated with 40 μL of 10 mg/ m L ThT for 5 min and washed with 50% ethanol solution for 3 min. Next, the brain sl ices were incubated with 40 μL of 1 μM probes for 20 min. After absorbin g th e residual liquid with dust-free paper, th e antifluorescence attenuating agent was added dropwise, and neutral gum was used for mounting. The slices were then placed under a laser confocal microscope (Lecia SP5) […]
Hemolysis Rate (HR) Assay
Human blood (1 m L, provided b y China-J apan Friendly Hospital, Beijing, China) was first diluted with 2 m L of PBS solution; the sample was centrifugated for 10 min (8000 rpm) and washed with PBS 5 times to separate red blood cells from serum. Finall y, the red blood cells were dispersed in 10 m L of P BS solution, from which 0.2 m L was taken, and 0.8 m L of different reagents (P BS, DI water, and 10, 20, 30, 50, and 100 μM of probes) was added. After mix ing evenl y, the samples were allowed to stand still for 3 h at room temperature and centrifuged (12,000 rpm, 5 min) to determine hemolysis circumstances. The supernatant (100 μL) was transferred to 96-well plates, and its ultraviolet absorption (Ex = 490 nm) was evaluated. […]

Aβ1–42 aggregates [2] = molecular target: T1, Aβ1–42 aggregates; assay: Fluorescence-based saturation binding assay; details: 10% EtOH/PBS, triplicate
Aβ1–42 aggregates [3] = molecular target: T1, Aβ1–42 aggregates; assay: In vitro Aβ42 aggregate staining in solution (CLSM); format: binding; details: probe 5 µM, ThT 10 µM
Procedure: In Vitro Aβ42 staining in solution
Aβ42 aggregates were prepared according to the literature reported method 2. Aβ42
aggregate solution (20 μL) was added dropwise to a slide (CITOTEST), and then spread
until dry. ThT (10 μM, 20 μL) was added dropwise and spread until it was dry. Prob es
were added dropwise and spread until dr y. Anti-fluorescence quenchin g reagent (10-20
μL) was added dropwise and covered with a cover slide. The fluorescence signal was
captured b y C LSM. λex (ThT) = 488 nm, λem (ThT) = 508-550 nm; λex (probe) = 633 nm,

[4] = molecular target: Aβ plaques in brain slices (Homo sapiens, UniProt P05067); assay: In vitro brain slice fluorescence staining, co-staining with ThT; details: Tg mice slices, 13-month-old, female
Procedure: To confirm whether the probes could bind Aβ deposits in brain slices, the fluorescence staining experiment were performed using slices of Tg mice (13‐month‐old, female). The staining results were imaged using CLSM. To ensure the accuracy of the staining results, commercial fluorescent dye ThT was used to co‐stain the same sections. The fluorescence signals of the slices were acquired at the same position using different channels of the CLSM. As shown in Figure 4 and Figure S27–S29, Supporting Information, Aβ plaques were highlighted by the probes with a high signal‐to‐background ratio. In contrast, there was no fluorescence signal for wild‐type slices (Figures S30–S32, Supporting Information). Since Aβ plaques are abundantly produced in the hippocampal and cortical regions of the brain, we imaged the corresponding regions of the slices, respectively. The staining results with ThT (Figure 4a,b,i,j,q,r) are shown in green, and the staining results of the probes TPyrBDP (Figure 4c,d), TPipBDP (Figure 4k,l), and THAIBDP (Figure 4s,t) are shown in red. All three probes could stain Aβ plaques both in the hippocampal and cortical regions successfully, and the corresponding merged image further confirmed the staining results. To quantify the colocalization effect, the Pearson correlation coefficients (R‐value) were calculated using ImageJ software. The closer the R‐value is to 1, the better the colocalization of the probe and ThT.
as §1
The paraffin-embedded blank sections (5 μm) were immersed in x ylene for 5 min for deparaffinization and then washed with ethanol for 2 min and water for 5 min. […]
Human blood (1 m L, provided b y China-J apan Friendly Hospital, Beijing, China) was first diluted with 2 m L of PBS solution; the sample was centrifugated for 10 min (8000 rpm) and washed with PBS 5 times to separate red blood cells from serum. […] The supernatant (100 μL) was transferred to 96-well plates, and its ultraviolet absorption (Ex = 490 nm) was evaluated. […]

[5] = test system: Aβ1–42 aggregates in PC12 cells; assay: Cell imaging of Aβ1–42 aggregates, co-staining with ThT; format: cell-based
Source text: PC12 cells were used to study the affinity between TPipBDP and Aβ1–42 aggregates. Aβ1–42 aggregates have great neurotoxicity to interfere with the normal function of the brain. […] To study the imaging of TPipBDP with Aβ1–42 aggregates, the imaging effect of TPipBDP with Aβ1–42 aggregates was studied in PC12 cells. […] After adding Aβ1–42 aggregates to PC12 cells, some smaller‐than‐cell green fluorescence (ThT) and red fluorescence (TPipBDP) spots were observed. These smaller‐than‐cell bright fluorescence spots were Aβ1–42 aggregates. The Aβ1–42 aggregates can be clearly observed in the bright field image. […]
After that, the gradient concentration of probes or Aβ was removed and MTT (5× MTT was diluted into 1× MTT using dilution buffer, 50 μL per well) was added; t he mix ture was incubated at 37 °C for 4 h. […] The cell viabilit y was determined by a microplate reader at 490 nm.
To a centrifuge tub e (containing 1 mg of Aβ42) was added 180 μL of DMSO and 720 μL of PBS (pH = 7.2-7.4, Hyclone) and 1% hydrox ylamine solution (100 μL); the solution was shaken on a shaker (300 rpm) at 37 °C for 7 da ys to form the Aβ42 aggregates. Initial peptide concentrations were determined spectrophotometricall y at 280 nm, using an extinction coefficient of 1280 M-1cm-1. […]

Chain of Aβ plaques in brain slices (P05067 672-711 limits assumed): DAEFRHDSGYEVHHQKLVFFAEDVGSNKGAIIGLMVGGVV
T1 sequence (P05067 672-713 limits assumed): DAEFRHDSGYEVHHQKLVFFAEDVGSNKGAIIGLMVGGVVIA

Em, with Aβ (Aβ1–42 aggregates [1]) [nm] | Em shift, with Aβ (Aβ1–42 aggregates [1]) | λem blueshift after interacting with Aβ1–42 aggregates (Aβ1–42 aggregates [1]; PBS (10% ethanol)) | Fluorescence enhancement (Fold = FL intensity probe+Aβ / probe) (Aβ1–42 aggregates [1]) | Kd (Aβ1–42 aggregates [2]) [nM] | Staining of Aβ1–42 aggregates in solution (Aβ1–42 aggregates [3]) | Pearson correlation coefficient (R-value) with ThT, hippocampus region [4] | λem redshift after interacting with Aβ1–42 aggregates (Aβ1–42 aggregates [1]; PBS (10% ethanol)) | Pearson correlation coefficient (R-value) with ThT, cortex region [4] | SMILES | Kd (Aβ aggregates) [nM] | viability at 24 h (Cytotoxicity MTT assay) [%] | hemolysis at 3 h (Hemolysis rate assay) [%] | R-value (colocalization with ThT), probe + Aβ group ([5]; PC12 cells with Aβ1–42 aggregates (10 µM)) | R-value (colocalization with ThT), control group ([5]; PC12 cells without Aβ)
– | – | – | – | – | – | – | – | – | Cc1cc(/C=C/c2ccc(N(C)C)cc2)n2c1C=C1C=CC=[N+]1[B-]2(F)F [BAP-1] | 44.1 | – | – | – | –
701 | -22 nm | ≈ 22 nm | 27.23 fold and 27.2 fold | 28.2 ± 3.07 | stained Aβ1–42 aggregates successfully | 0.72 | – | – | CC1=CC(C)=[N+]2C1=Cc1c(C)cc(/C=C/c3ccc(N4CCCCCC4)s3)n1[B-]2(F)F [THAIBDP] | – | > 80 | < 5 | – | –
692 | -27 nm | ≈ 27 nm | 75.54 fold and 75.5 fold | 28.3 ± 5.94 | – | – | – | – | CC1=CC(C)=[N+]2C1=Cc1c(C)cc(/C=C/c3ccc(N4CCCCC4)s3)n1[B-]2(F)F [TPipBDP] | – | > 80 | < 5 | 0.84 | 0.65
693 | +13 nm | – | 42.48 fold and 42.5 fold | 54.2 ± 5.82 | stained Aβ1–42 aggregates successfully | 0.87 | ≈ 13 nm | 0.85 | CC1=CC(C)=[N+]2C1=Cc1c(C)cc(/C=C/c3ccc(N4CCCC4)s3)n1[B-]2(F)F [TPyrBDP] | – | > 80 | < 5 | – | –

Reference: paper PMC11468675, “Near‐Infrared Bodipy‐Based Molecular Rotors for β‐Amyloid Imaging In Vivo” (Advanced Healthcare Materials, 2023)
